# Test results as given in ChEMBL document CHEMBL1150491, “Chemistry and pharmacokinetics of diarylthiophenes and terphenyls as selective COX-2 inhibitors” (Bioorg Med Chem Lett, 1996).
# Legend:
# [1] = target: T1, Prostaglandin G/H synthase 1 (Ovis aries, UniProt P05979); test: Compound was evaluated for inhibitory activity against ovine Prostaglandin G/H synthase 1
# T1 sequence (P05979 whole entry): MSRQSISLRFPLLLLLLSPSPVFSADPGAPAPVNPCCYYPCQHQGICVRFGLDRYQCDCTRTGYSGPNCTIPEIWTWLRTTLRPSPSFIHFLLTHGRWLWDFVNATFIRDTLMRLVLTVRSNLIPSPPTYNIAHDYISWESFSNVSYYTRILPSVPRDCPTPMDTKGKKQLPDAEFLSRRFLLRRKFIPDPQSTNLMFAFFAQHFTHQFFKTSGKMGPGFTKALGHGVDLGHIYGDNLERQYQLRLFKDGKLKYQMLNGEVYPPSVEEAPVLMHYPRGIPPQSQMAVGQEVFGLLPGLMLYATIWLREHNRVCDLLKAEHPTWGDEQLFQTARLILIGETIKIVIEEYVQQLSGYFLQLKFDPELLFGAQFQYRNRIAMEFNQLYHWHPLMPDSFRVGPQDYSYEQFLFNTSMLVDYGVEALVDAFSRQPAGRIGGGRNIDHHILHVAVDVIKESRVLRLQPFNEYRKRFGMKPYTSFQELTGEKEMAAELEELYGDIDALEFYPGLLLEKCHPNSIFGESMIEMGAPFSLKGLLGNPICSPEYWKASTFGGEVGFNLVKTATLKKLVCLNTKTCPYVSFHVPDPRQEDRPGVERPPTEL
# [2] = target: T2, Prostaglandin G/H synthase 2 (Homo sapiens, UniProt P35354); test: Compound was evaluated for inhibitory activity against human Prostaglandin G/H synthase 2
# T2 sequence (P35354 whole entry): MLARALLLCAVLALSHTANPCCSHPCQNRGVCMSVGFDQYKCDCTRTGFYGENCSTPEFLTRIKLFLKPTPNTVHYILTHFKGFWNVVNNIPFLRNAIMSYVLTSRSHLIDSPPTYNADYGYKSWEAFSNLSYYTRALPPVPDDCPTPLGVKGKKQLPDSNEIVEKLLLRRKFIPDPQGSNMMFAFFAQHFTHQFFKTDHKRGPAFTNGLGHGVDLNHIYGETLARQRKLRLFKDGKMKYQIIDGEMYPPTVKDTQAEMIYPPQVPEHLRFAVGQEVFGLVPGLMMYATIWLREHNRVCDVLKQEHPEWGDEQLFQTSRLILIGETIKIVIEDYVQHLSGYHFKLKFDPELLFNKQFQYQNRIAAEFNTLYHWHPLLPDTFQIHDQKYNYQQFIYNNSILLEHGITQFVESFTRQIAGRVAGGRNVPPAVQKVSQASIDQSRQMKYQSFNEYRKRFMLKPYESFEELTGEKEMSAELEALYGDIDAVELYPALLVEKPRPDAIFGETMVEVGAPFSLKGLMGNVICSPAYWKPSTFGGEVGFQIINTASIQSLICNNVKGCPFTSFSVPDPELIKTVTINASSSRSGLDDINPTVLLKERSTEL
# [3] = Plasma clearance was evaluated in Sprague-Dawley rats at a dose of 15 mg/kg after iv administration; assay type: ADME, organism-based; parameters: dose 15 mg/kg, route intravenous; settings: rat
# [4] = Maximum concentration in plasma was evaluated in Sprague-Dawley rats at a dose of 15 mg/kg after po administration; assay type: ADME, organism-based; parameters: dose 15 mg/kg, route oral; settings: rat
# [5] = Oral bioavailability in rat (Sprague-Dawley) (dose 15 mg/kg); assay type: ADME, organism-based; settings: in vivo
# [6] = Half life period was evaluated against Sprague-Dawley rats at a dose of 15 mg/kg after iv administration; assay type: ADME, organism-based; parameters: dose 15 mg/kg, route intravenous; settings: rat, in vivo
# [7] = Volume of distribution was evaluated in Sprague-Dawley rats at a dose of 15 mg/kg after iv administration; assay type: ADME, organism-based; parameters: dose 15 mg/kg, route intravenous; settings: rat, in vivo, read-out: Vss
# [8] = Time taken to reach maximum concentration in plasma was evaluated in Sprague-Dawley rats at a dose of 15 mg/kg after po administration; assay type: ADME, organism-based; parameters: dose 15 mg/kg, route oral; settings: rat
# [9] = Half life period was evaluated in Sprague-Dawley rats at a dose of 15 mg/kg after po administration; assay type: ADME, organism-based; parameters: dose 15 mg/kg, route oral; settings: rat, in vivo
# Canis familiaris [10] = test: Area under curve was evaluated against Beagle dog at a dose of 15 mg/kg after po administration; assay type: ADME, organism-based, Canis lupus familiaris; parameters: dose 15 mg/kg, route oral; settings: in vivo
# [11] = Area under curve was evaluated against Cynomolgus monkey at a dose of 15 mg/kg after po administration; assay type: ADME, organism-based; parameters: dose 15 mg/kg, route oral; settings: cercopithecidae, in vivo
# Canis familiaris [12] = test: Maximum concentration was evaluated against Beagle dog at a dose of 15 mg/kg after po administration; assay type: ADME, organism-based, Canis lupus familiaris; parameters: dose 15 mg/kg, route oral; settings: in vivo
# [13] = Area under curve was evaluated against man at a dose of 10 mg/kg after po administration; assay type: ADME, organism-based; parameters: dose 10 mg/kg, route oral; settings: human, in vivo
# Canis familiaris [14] = test: Half life period was evaluated against Beagle dog at a dose of 15 mg/kg after po administration; assay type: ADME, organism-based, Canis lupus familiaris; parameters: dose 15 mg/kg, route oral; settings: in vivo
# Canis familiaris [15] = test: Maximum time was evaluated against Beagle dog at a dose of 15 mg/kg after po administration; assay type: ADME, organism-based, Canis lupus familiaris; parameters: dose 15 mg/kg, route oral; settings: in vivo
# [16] = Half life period was evaluated against man at a dose of 10 mg/kg after po administration; assay type: ADME, organism-based; parameters: dose 10 mg/kg, route oral; settings: human, in vivo
# [17] = Maximum concentration was evaluated against man at a dose of 10 mg/kg after po administration; assay type: ADME, organism-based; parameters: dose 10 mg/kg, route oral; settings: human, in vivo
# [18] = Bioavailability was evaluated against Beagle dog at a dose of 15 mg/kg after po administration; assay type: ADME, organism-based, Canis lupus familiaris; settings: in vivo
# [19] = Maximum time was evaluated against Cynomolgus monkey at a dose of 15 mg/kg after po administration; assay type: ADME, organism-based; parameters: dose 15 mg/kg, route oral; settings: cercopithecidae, in vivo
# [20] = Half life period was evaluated against Cynomolgus monkey at a dose of 15 mg/kg after po administration; assay type: ADME, organism-based; parameters: dose 15 mg/kg, route oral; settings: cercopithecidae, in vivo
# [21] = Maximum time was evaluated against man at a dose of 10 mg/kg after po administration; assay type: ADME, organism-based; parameters: dose 10 mg/kg, route oral; settings: human, in vivo
# [22] = Bioavailability was evaluated against Cynomolgus monkey at a dose of 15 mg/kg after po administration; assay type: ADME, organism-based, Macaca fascicularis; settings: in vivo
# [23] = Maximum concentration was evaluated against Cynomolgus monkey at a dose of 15 mg/kg after po administration; assay type: ADME, organism-based; parameters: dose 15 mg/kg, route oral; settings: cercopithecidae, in vivo
structure (smiles),measurement,setting,value
CS(=O)(=O)c1ccc(-c2cscc2-c2ccccc2)cc1,IC50,[1],> 1000 µM
same,IC50,[2],4 µM
CS(=O)(=O)c1ccc(-c2ccsc2-c2ccccc2)cc1,IC50,[1],> 1000 µM
same,IC50,[2],4 µM
CS(=O)(=O)c1ccc(-c2cc(CC#N)sc2-c2ccc(F)cc2)cc1,IC50,[1],> 300 µM
same,IC50,[2],49 µM
CS(=O)(=O)c1ccc(-c2ccccc2-c2ccccc2)cc1,clearance,[3],35.8 mL/min/kg
same,Cmax,[4],1430 ng/mL
same,bioavailability,[5],60%
same,IC50,[1],> 1000 µM
same,half-life,[6],1.7 h
same,Vd,[7],3.08 L/kg
same,IC50,[2],11 µM
same,Tmax,[8],0.25 h
CS(=O)(=O)c1ccc(-c2ccsc2-c2ccc(F)cc2)cc1,half-life,[9],12.1 h
same,clearance,[3],158 mL/min/kg
same,Cmax,[4],8 ng/mL
same,bioavailability,[5],3.4%
same,IC50,[1],490 µM
same,half-life,[6],14.3 h
same,Vd,[7],19 L/kg
same,IC50,[2],8 µM
same,Tmax,[8],4 h
CS(=O)(=O)c1ccc(-c2cc(Sc3ccccc3)sc2-c2ccc(F)cc2)cc1,IC50,[1],> 300 µM
same,IC50,[2],66 µM
CS(=O)(=O)c1ccc(-c2c(-c3ccccc3)sc3c2CCCC3)cc1,IC50,[1],> 1000 µM
same,IC50,[2],19 µM
CS(=O)(=O)c1ccc(-c2cc([N+](=O)[O-])sc2-c2ccc(F)cc2)cc1,IC50,[1],> 1000 µM
same,IC50,[2],14 µM
c1ccc(-c2ccsc2-c2ccccc2)cc1,clearance,[3],51.3 mL/min/kg
same,Cmax,[4],100 ng/mL
same,bioavailability,[5],20%
same,IC50,[1],28 µM
same,half-life,[6],4.94 h
same,Vd,[7],19.6 L/kg
same,IC50,[2],> 300 µM
same,Tmax,[8],4.2 h
CS(=O)(=O)c1ccc(-c2cscc2-c2ccc(S(C)(=O)=O)cc2)cc1,IC50,[1],> 300 µM
same,IC50,[2],> 300 µM
CS(=O)(=O)c1ccc(-c2cc(CCC(=O)O)sc2-c2ccc(F)cc2)cc1,IC50,[1],12 µM
same,IC50,[2],> 300 µM
CS(=O)(=O)c1ccc(-c2cscc2-c2ccc(F)cc2)cc1,IC50,[1],674 µM
same,IC50,[2],8 µM
CCOC(=O)/C=C/c1cc(-c2ccc(S(C)(=O)=O)cc2)c(-c2ccc(F)cc2)s1,IC50,[1],100 µM
same,IC50,[2],> 300 µM
CS(=O)(=O)c1ccc(-c2cc(N)sc2-c2ccc(F)cc2)cc1,IC50,[1],6 µM
same,IC50,[2],3 µM
COc1ccc(-c2sccc2-c2ccc(S(C)(=O)=O)cc2)cc1,IC50,[1],48 µM
same,IC50,[2],5 µM
CS(=O)(=O)c1ccc(-c2cc(S(C)(=O)=O)sc2-c2ccc(F)cc2)cc1,IC50,[1],> 300 µM
same,IC50,[2],200 µM
CSc1ccc(-c2cscc2-c2ccc(S(C)(=O)=O)cc2)cc1,IC50,[1],93 µM
same,IC50,[2],6 µM
CSc1ccc(-c2cscc2-c2ccc(SC)cc2)cc1,IC50,[1],15 µM
same,IC50,[2],101 µM
COc1ccc(-c2cscc2-c2ccc(S(C)(=O)=O)cc2)cc1,IC50,[1],> 1000 µM
same,IC50,[2],5 µM
CS(=O)(=O)c1ccc(-c2ccsc2-c2ccc(O)cc2)cc1,IC50,[1],293 µM
same,IC50,[2],86 µM
Cc1ccc(-c2cscc2-c2ccc(S(C)(=O)=O)cc2)cc1,IC50,[1],438 µM
same,IC50,[2],4 µM
Cc1ccc(-c2sccc2-c2ccc(S(C)(=O)=O)cc2)cc1,IC50,[1],> 1000 µM
same,IC50,[2],13 µM
CCOC(=O)CCc1cc(-c2ccc(S(C)(=O)=O)cc2)c(-c2ccc(F)cc2)s1,IC50,[1],200 µM
same,IC50,[2],130 µM
Cc1cc(-c2ccc(S(C)(=O)=O)cc2)c(-c2ccc(F)cc2)s1,clearance,[3],28.2 mL/min/kg
same,Cmax,[4],20 ng/mL
same,bioavailability,[5],0.9%
same,IC50,[1],80 µM
same,half-life,[6],19.4 h
same,Vd,[7],16.8 L/kg
same,IC50,[2],10 µM
same,Tmax,[8],0.7 h
CS(=O)(=O)c1ccc(-c2cc(Br)sc2-c2ccc(F)cc2)cc1 [DUP-697],AUC,Canis familiaris [10],1.5 µg·h/mL
same,half-life,[9],16.6 h
same,AUC,[11],56 µg·h/mL
same,clearance,[3],3.63 mL/min/kg
same,Cmax,[4],2400 ng/mL
same,bioavailability,[5],75%
same,Cmax,Canis familiaris [12],411 ng/mL
same,AUC,[13],3240 µg·h/mL
same,T1/2,Canis familiaris [14],6 h
same,T max,Canis familiaris [15],1 h
same,half-life,[16],292 h
same,Cmax,[17],60.5 ng/mL
same,bioavailability,[18],4.4%
same,half-life,[6],22 h
same,Vd,[7],6.3 L/kg
same,Tmax,[19],24 h
same,half-life,[20],31.8 h
same,Tmax,[8],8 h
same,Tmax,[21],3 h
same,bioavailability,[22],30.4%
same,Cmax,[23],698 ng/mL
